The values that follow come from patent US20140171475A1, “ANIMAL ECTOPARASITE-CONTROLLING AGENT” (SUMITOMO CHEMICAL COMPANY, LIMITED, priority 2011, published 2014).

Usually mortality stands for the share of the test organisms that died.

For test [1], the system named is Haemaphysalis longicornis (young ticks) on mouse. Put plainly: Dropping application against mouse-infested ticks. Particulars: topical, 48 h, 0.1% w/v solution, 200 μL dropwise to whole body surface of mouse, 2 days after application, read-out: Mortality. Type of test: in vivo. The procedure:
The previous day of a dropping application, 30 test ticks (Haemaphysalis longicornis, young ticks) were deposited on a mouse. Before the dropping application, uninfested ticks were removed.
Any one of the present benzylamide compounds (12), (13), (15), (28), (29), (30), (31), (32), (33), (34), (36), (37) and (38) (5 mg) was dissolved in a mixture (5 mL) of propylene carbonate and diethylene glycol monoethyl ether in equal volume to prepare a 0.1% w/v solution. Said solution (200 μL) was applied dropwise to the whole body surface of a mouse with a pipette. To a control group, the mixture (200 μL) alone was applied. Said application was repeated 3 times per group.
Two (2) days after the application, the number of dead ticks was examined and the mortality was calculated by the following formula:
Mortality (%)=100×(number of dead ticks/infested ticks before dropping application)

The test system of test [2] is Haemaphysalis longicornis (non-blood-fed young ticks). Description: Pesticidal activity on ticks, dry film contact application test. Particulars: 48 h, 16 μg as dry film on inner surface of 20 mL screw bottle, 2 days later, read-out: Mortality. It is filed as in vivo. The method, then: Any one of the present benzylamide compounds (12), (13), (15), (28), (29), (30), (31), (32), (33), (34), (37) and (38) (16 μg) was dissolved in acetone (0.2 mL), and into a screw bottle (20 mL volume) this solution was dropwised and capped the bottle. Then the capped-bottle was made rolling so that the inner-surface of the screw bottle was uniformly coated with the solution. The acrew bottle was capped off and allowed to dry up for 2 hours. Into the screw bottle, test ticks (Haemaphysalis longicornis, non-blood-fed young ticks, 10 ticks/group) were added, and capped the bottle. Two (2) days later, the number of dead ticks was examined and the mortality was calculated by the following formula:
Mortality (%)=100×(number of dead ticks/number of ticks tested)

For `O=C(NCc1cc(C2=NOC(c3cc(Cl)cc(Cl)c3)(C(F)(F)F)C2)ccc1Cl)C(F)(F)F` (stereo not shown) [(36), N-{2-chloro-[5-(3,5-dichlorophenyl)-5-trifluoromethyl-4,5-dihydroisoxazol-3-yl]benzyl}trifluoroacetamide], in test [1], the pest or weed control at 0.1 % strength is at least 60%. `CC(C)CC(=O)NCc1cc(C2=NOC(c3cc(Cl)cc(Cl)c3)(C(F)(F)F)C2)ccc1Cl` (stereo not shown) [(33), N-{2-chloro-[5-(3,5-dichlorophenyl)-5-trifluoromethyl-4,5-dihydroisoxazol-3-yl]benzyl}isovaleramide]: in test [1], the pest or weed control at 0.1 % strength was at least 60%. In addition, in test [2], the mortality at 16 µg/bottle was at least 90%.

For the molecule `CCCC(=O)NCc1cc(C2=NOC(c3cc(Cl)cc(Cl)c3)(C(F)(F)F)C2)ccc1Cl` (stereo not shown) [(32)], in test [1], the pest or weed control at 0.1 % strength was at least 60%. For the same molecule, the mortality at 16 µg/bottle in test [2] is at least 90%. The matching figures for `CC(=O)NCc1cc(C2=NOC(c3cc(Cl)cc(Cl)c3)(C(F)(F)F)C2)ccc1Cl` (stereo not shown) [(28), N-{2-chloro-[5-(3,5-dichlorophenyl)-5-trifluoromethyl-4,5-dihydroisoxazol-3-yl]benzyl}acetamide]: at least 60% and at least 90%. Regarding `O=C(NCc1cc(C2=NOC(c3cc(Cl)cc(Cl)c3)(C(F)(F)F)C2)ccc1Cl)C1CCC1` (stereo not shown) [(37), N-{2-chloro-[5-(3,5-dichlorophenyl)-5-trifluoromethyl-4,5-dihydroisoxazol-3-yl]benzyl}cyclobutanecarboxamide], the pest or weed control at 0.1 % strength in test [1] is at least 60%. The mortality at 16 µg/bottle in test [2] was at least 90%. Regarding `COCC(=O)NCc1cc(C2=NOC(c3cc(Cl)cc(Cl)c3)(C(F)(F)F)C2)ccc1Cl` (stereo not shown) [(30), N-{2-chloro-[5-(3,5-dichlorophenyl)-5-trifluoromethyl-4,5-dihydroisoxazol-3-yl]benzyl}methoxyacetamide], the pest or weed control at 0.1 % strength in test [1] was at least 60%. Also, the mortality at 16 µg/bottle in test [2] is at least 90%. As to `O=C(NCc1cc(C2=NOC(c3cc(Cl)cc(Cl)c3)(C(F)(F)F)C2)ccc1Cl)C1CCCC1` (stereo not shown) [(38), N-{2-chloro-[5-(3,5-dichlorophenyl)-5-trifluoromethyl-4,5-dihydroisoxazol-3-yl]benzyl}cyclopentanecarboxamide], the pest or weed control at 0.1 % strength in test [1] was at least 60%. In test [2], the mortality at 16 µg/bottle is at least 90%. Taken in the same sequence, the figures for `CC(C)C(=O)NCc1cc(C2=NOC(c3cc(Cl)cc(Cl)c3)(C(F)(F)F)C2)ccc1Cl` (stereo not shown) [(31), N-{2-chloro-[5-(3,5-dichlorophenyl)-5-trifluoromethyl-4,5-dihydroisoxazol-3-yl]benzyl}isobutyramide] were at least 60% and at least 90%. On to `O=C(CCC(F)(F)F)NCc1cc(C2=NOC(c3cc(Cl)cc(Cl)c3)(C(F)(F)F)C2)ccc1Cl` (stereo not shown) [(29), N-{2-chloro-[5-(3,5-dichlorophenyl)-5-trifluoromethyl-4,5-dihydroisoxazol-3-yl]benzyl}-4,4,4-trifluorobutanamide], for which the pest or weed control at 0.1 % strength in test [1] was at least 60%. Besides, the mortality at 16 µg/bottle in test [2] is at least 90%.

`N#CCC(=O)NCc1cc(C2=NOC(c3cc(Cl)cc(Cl)c3)(C(F)(F)F)C2)ccc1Cl` (stereo not shown) [(34), N-{2-chloro-[5-(3,5-dichlorophenyl)-5-trifluoromethyl-4,5-dihydroisoxazol-3-yl]benzyl}cyanoacetamide]: the pest or weed control at 0.1 % strength in test [1] was at least 60%. Also, in test [2], the mortality at 16 µg/bottle was at least 90%.
